The text below walks through data of patent publication US20230303552A1, “ARYLSULFONYL DERIVATIVES AND THEIR USE AS MUSCARINIC ACETYLCHOLINE RECEPTOR M5 INHIBITORS” (Vanderbilt University, priority 2020, published 2023).

What is called IC50 is the point on the concentration scale where inhibition reaches its midpoint.

For this experiment, the target named is T1, human M5 receptors (hM5) (Homo sapiens, UniProt P08912).
T1 construct: expressed in transfected cells
T1 sequence (P08912 1-532): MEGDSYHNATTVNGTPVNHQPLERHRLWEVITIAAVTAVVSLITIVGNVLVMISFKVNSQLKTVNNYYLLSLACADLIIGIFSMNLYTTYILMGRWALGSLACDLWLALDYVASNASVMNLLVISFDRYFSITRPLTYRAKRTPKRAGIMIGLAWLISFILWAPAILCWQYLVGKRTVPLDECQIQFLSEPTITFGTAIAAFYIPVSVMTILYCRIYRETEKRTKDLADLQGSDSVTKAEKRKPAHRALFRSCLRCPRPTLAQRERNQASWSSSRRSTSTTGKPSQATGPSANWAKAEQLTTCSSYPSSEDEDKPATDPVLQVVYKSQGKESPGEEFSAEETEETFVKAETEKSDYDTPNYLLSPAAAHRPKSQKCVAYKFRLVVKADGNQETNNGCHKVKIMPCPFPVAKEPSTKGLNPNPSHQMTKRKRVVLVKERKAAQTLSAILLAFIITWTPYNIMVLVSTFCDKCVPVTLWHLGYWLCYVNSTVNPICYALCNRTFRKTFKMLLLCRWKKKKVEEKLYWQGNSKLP
As to the kind of experiment: Cell-based functional calcium mobilization assay of mAChR M5 activity (inhibition of EC80 acetylcholine response) in CHO cells. The note with it: CHO cells stably expressing hM5; for IC50: calcium flux (Fluo-4), EC80 acetylcholine addition; for EC80 MIN: minimum of EC80 acetylcholine response, normalized to maximum acetylcholine response. The method, then:
All functional cell-based assays were performed essentially as previously described (Marlo et al., Mol.Pharm. 2009, 75(3), 577-588; Brady et al., J. Pharm. & Exp. Ther. 2008, 327, 941-953). Initial, single point (10 µM) competitive and non-competitive inhibitor characterization was performed in stable Chinese Hamster Ovary (CHO) cell lines constitutively expressing human M5 receptors. These were plated at 15,000 cells per 20 µL per well in Greiner 384-well black-walled, TC-treated, clear-bottomed plates (Fisher) in Ham’s F12 medium supplemented with 10% FBS and 20 mM HEPES. Cells were incubated overnight at 37° C. under 5% CO2. The following day, medium was exchanged with assay buffer (Hank’s Balanced Salt Solution supplemented with 20 mM HEPES and 2.5 mM Probenecid, pH 7.4) leaving 20 µL of assay buffer in each well. This was followed by the addition of 20 µL of 2.3 µM of Fluo-4 AM (Invitrogen) in assay buffer (final concentration 1.15 µM). The cells were then incubated 50 minutes at 37° C. under 5% CO2. The assay buffer plus dye was then exchanged with fresh assay buffer leaving a volume of 20 µL in each well. Test compounds were diluted into assay buffer to a 2X (20 µM) concentration in 0.2% dimethylsulfoxide (DMSO) in columns 3 - 22 with matching DMSO concentration in columns 1, 2, 23, and […]; compounds were added to the assay for a final concentration of 10 µM and a final DMSO concentration of 0.1%. Acetylcholine (Sigma-Aldrich) was prepared to provide 5X concentrations of EC20, EC80, and ECmax in the triple-addition assay, providing a signal window to view agonism, potentiation, and inhibition of the acetylcholine response as well as a means to normalize to the maximum acetylcholine response.
Either an FDSS (Hamamatsu) or Panoptic (WaveFront Biosciences) kinetic imaging plate reader was used for assay execution and measurement of calcium flux. After establishing baseline fluorescence, test compounds (20 µL) were added to the cells using the reader’s integrated pipettor and allowed to equilibrate for 140 seconds before addition of the EC20 concentration of acetylcholine (10 µL) along with vehicle in selected DMSO-only wells in the outer two columns. The EC80 concentration of acetylcholine (10 µL) was added 125 seconds after the EC20 addition along with ECmax concentration in the wells receiving vehicle in the second addition. The raw fluorescence data from each well was normalized to the corresponding initial fluorescence reading (static ratio). The maximum fluorescence value following each addition was determined and the minimum value within that same timeframe was subtracted for each well then normalized to the average of the ECmax maximum-minimum response, providing a %AChmax value for each addition for each well. The single point values represent mean values determined within the EC80 addition timeframe obtained from at least three independent determinations performed in triplicate or greater (error bars represent +/- SEM) unless otherwise specified.
Further characterization of competitive and non-competitive inhibitor compounds (compound potency and mAChR subtype-selectivity) was performed on the FDSS with calcium mobilization assays performed as previously described (Marlo et al., 2009; Brady et al., 2008) and in a format similar to that described above using the same reagents. CHO cells stably expressing hM1, hM2/Gqi5, hM3, hM4/Gqi5, hM5, rM1, rM2/Gqi5, rM3, rM4/Gqi5, or rMs were plated in the manner described above. A ten-point concentration range of test compound was serial diluted in assay buffer to 2X final concentration and acetylcholine was diluted in assay buffer to 5X of the EC20 and EC80 concentrations, determined empirically and 5X maximal (2 mM final concentration) stock concentrations. FDSS protocols were carried out as described above; the static ratio was calculated and the minimum response subtracted from the maximum response within the timeframe of each addition. […]
A general note: A change in cytosolic calcium serves as a functional read-out for many receptors and channels.

As to `O=C(Nc1ccc2scnc2c1)[C@@H]1CCN(S(=O)(=O)c2ccc3c(c2)CCC3)C1` [Compound 150, (R)-N-(benzo[d]thiazol-5-yl)-1-((2,3-dihydro-1H-inden-5-yl)sulfonyl)pyrrolidine-3-carboxamide], the IC50 is more than 10 µM.
Consider `CC1(C(=O)Nc2ccc3scnc3c2)CCN(S(=O)(=O)c2ccc3c(c2)CCO3)CC1` [Compound 104, N-(benzo[d]thiazol-5-yl)-1-((2,3-dihydrobenzofuran-5-yl)sulfonyl)-4-methylpiperidine-4-carboxamide], for which the half-inhibitory concentration (IC50) was more than 10 µM and the “EC80 MIN” value worked out at 3%.
On the same counts, the results for `O=C(Nc1ccc2scnc2c1)C1CCN(S(=O)(=O)c2cccnc2)C1` (racemic) [Compound 38, (rac)-N-(benzo[d]thiazol-5-yl)-1-(pyridin-3-ylsulfonyl)pyrrolidine-3-carboxamide] are more than 10 µM and 29%.
For the molecule `C[C@@H]1CN(S(=O)(=O)c2ccc3c(c2)CCO3)C[C@@H]1C(=O)Nc1ccc2scnc2c1` [Compound 111, (3R,4S)-N-(benzo[d]thiazol-5-yl)-1-((2,3-dihydrobenzofuran-5-yl)sulfonyl)-4-methylpyrrolidine-3-carboxamide], the IC50 was found to be 0.038 µM and the “EC80 MIN” value came out at 3%.
`Cc1nn(C)cc1S(=O)(=O)N1CCC(F)(C(=O)Nc2ccc3scnc3c2)CC1` [Compound 109, N-(benzo[d]thiazol-5-yl]-1-((1,3-dimethyl-1H-pyrazol-4-yl)sulfonyl)-4-fluoropiperidine-4-carboxamide]: the IC50 was more than 10 µM and the “EC80 MIN” value was found to be 9%.
On the same counts, the results for `O=C(Nc1ccc2scnc2c1)C1CCN(S(=O)(=O)c2ccc(F)c(F)c2)CC1` [Compound 32, N-(benzo[d]thiazol-5-yl)-1-((3,4-difluorophenyl)sulfonyl)pip eridine-4-carboxamide] are 1.93 µM and 3%.
For the molecule `C[C@@H]1CN(S(=O)(=O)c2ccc3c(c2)CCO3)CC[C@@H]1C(=O)Nc1ccc2scnc2c1` (racemic) [Compound 92, cis-(rac)-,N^_ (benzo[d]thiazol-5-yl)-1-((2,3-dihydrobenzofuran-5-yl)sulfonyl)-3-methylpiperidine-4-carboxamide], the half-inhibitory concentration (IC50) came to 0.631 µM and the “EC80 MIN” value amounted to 4%.
Regarding `C[C@H]1CN(S(=O)(=O)c2ccc3ncsc3c2)CC[C@@H]1C(=O)Nc1ccc2scnc2c1` (racemic) [Compound 117, trans-(rac)-N-(benzo[d]thiazol-5-yl)-1-(benzo[d]thiazol-6-ylsulfonyl)-3-methylpiperidine-4-carboxamide], the IC50 stood at 8.92 µM and the “EC80 MIN” value is given as 5%.
Turning to `O=C(Nc1ccc2scnc2c1)C12CC1CN(S(=O)(=O)c1ccc3c(c1)CCO3)C2` (racemic) [Compound 23, (rac)-N-(benzo[d]thiazol-5-yl)-3-((2,3-dihydrobenzofuran-5-yl)sulfonyl)-3-azabicyclo[3.1.0]hexane-1-carboxamide], the IC50 stood at 0.248 µM and the “EC80 MIN” value came out at 2%.
Turning to `CN(C(=O)C1CCN(S(=O)(=O)c2ccc3c(c2)CCO3)CC1)c1ccc2scnc2c1` [Compound 84, N-(Benzo[d]thiazol-5-yl)-1-((2,3-Dihydrobenzofuran-5-yl)Sulfonyl)-N-Methylpiperidine-4-Carboxamide], the IC50 is more than 10 µM.
As to `[2H]C1([2H])Oc2ccc(S(=O)(=O)N3CCC(C(=O)Nc4ccc5scnc5c4)CC3)cc2C1([2H])[2H]` [Compound 139, N-(benzo[d]thiazol-5-yl)-1-((2,3-dihydrobenzofuran-5-yl-2,2,3,3-d4)sulfonyl)piperidine-4-carboxamide], the IC50 amounted to 0.076 µM and the “EC80 MIN” value worked out at 2%.
With `O=C(Nc1ccc2scnc2c1)C12CC1CN(S(=O)(=O)c1cccnc1)C2` (racemic) [Compound 40, (rac)-N-(benzo[d]thiazol-5-yl)-3-(pyridin-3-ylsulfonyl)-3-azabicyclo[3.1.0]hexane-1-carboxamide], the IC50 is more than 10 µM and the “EC80 MIN” value came to 53%.
`COc1ccc(S(=O)(=O)N2CCC(C(=O)Nc3ccc4scnc4c3)CC2)cn1` [Compound 10, N-(benzo[d]thiazol-5-yl)-1-((6-methoxypyridin-3-yl)sulfonyl)piperidine-4-carboxamide]: the IC50 came to 1.32 µM and the “EC80 MIN” value is listed as 3%.
On the same counts, the results for `CC1(C(=O)Nc2ccc3scnc3c2)CCN(S(=O)(=O)c2cccc3nsnc23)CC1` [Compound 107, 1-(benz.o[c][1.2.5]thiadiazol-4-ylsulfony1)-N-(benzo[d]thiazol-5-yl)-4-methylpiperidine-4-carboxamide] are more than 10 µM and 24%.
For the molecule `O=C(Nc1ccc2scnc2c1)[C@@H]1CCN(S(=O)(=O)c2cc3c(cc2F)OCC3)C1` [Compound 42, (R)-N-(benz[d]thiazol-5-yl)-1-((6-fluoro-2,3-dihydrobenzofuran-5-yl)sulfonyl)pyrrolidine-3-carboxamide], the half-maximal inhibitory concentration (IC50) was 0.039 µM and the “EC80 MIN” value was 2%.
On to `O=C(Nc1ccc2scnc2c1)C12CC1CN(S(=O)(=O)c1cc3c(cc1F)OCC3)C2` (racemic) [Compound 43, (rac)-N-(benzo[d]thiazol-5-yl)-3-((6-fluoro-2,3-dihydrobenzofuran-5-yl)sulfonyl)-3-azabicyclo[3.1.0]hexane-1-carboxamide], for which the IC50 turned out to be 0.202 µM and the “EC80 MIN” value came out at 3%.
In the case of `C[C@@H]1C[C@H](C(=O)Nc2ccc3scnc3c2)CCN1S(=O)(=O)c1cccc2nsnc12` (racemic) [Compound 99, cis-(rac)-1-(benzo[c][1,2.5]thiadiazol-4-ylsulfonyl)-N-(benzo[d]thiazol-5-yl)-2-methylpiperidine-4-carboxamide], the IC50 was 0.389 µM and the “EC80 MIN” value amounted to 3%.
Take `O=C(Nc1ccc2scnc2c1)C1CCN(S(=O)(=O)c2cccc(C(F)(F)F)c2)CC1` [Compound 54, N-(benzo[d]thiazol-5-yl)-1-((3-(trifluoromethyl)phenyl)sulfonyl)piperidine-4-carboxamide]: the 50% inhibitory concentration (IC50) is more than 10 µM and the “EC80 MIN” value is 51%.
In the case of `CC1Cc2cc(S(=O)(=O)N3CCC(C(=O)Nc4ccc5scnc5c4)CC3)ccc2O1` (racemic) [Compound 87, (rac)-N-(benzo[d]thiazol-5-yl)-1-((2-methyl-2.3-dihydrobenzofuran-5-yl)sulfonyl)piperidine-4-carboxamide], the half-maximal inhibitory concentration (IC50) is more than 10 µM.
In the case of `O=C(Nc1ccc2snnc2c1)C1CCN(S(=O)(=O)c2ccc3c(c2)CCO3)CC1` [Compound 100], the 50% inhibitory concentration (IC50) stood at 0.129 µM and the “EC80 MIN” value worked out at 14%.
